Laboratory results taken from patent publication US10851109B2, “Compositions and methods of using the same for treatment of neurodegenerative and mitochondrial disease” (Mitokinin, Inc., priority 2014, dated 2020).

How the values were obtained:
ND2 mutant flies = experiment: Mechanical stress-induced (bang sensitive) paralysis test in ND2 mutant flies; type: in vivo, Drosophila; settings: ND2 mutant flies treated throughout life with 10 μM of drug; tested after aging 15 days
Description: Mutations affecting mitochondrial complex I, a multi-subunit assembly that couples electron transfer to proton pumping, are the most frequent cause of heritable mitochondrial diseases. Here, a Drosophila model of complex I deficiency caused by a homoplasmic mutation in the mitochondrial-encoded NADH dehydrogenase subunit 2 (ND2) gene is used. […] This ND2 mutant model was used in “bang sensitivity” behavioral analysis to show the effects of kinetin treatment.
All Drosophila strains were maintained on standard cornmeal/molasses medium at 25° C. with a 12-hour lightdark cycle. The ND2de11 and ND2ins1 stock was obtained from the laboratory of Dr. Patrick O'Farrell (University of California, San Francisco) (Xu et al., 2008). The isogenic w1118 stock was obtained from the Bloomington Drosophila Stock Center at Indiana University. […]
Drosophila strains with mutations affecting mitochondrial function often show an analogous seizure-like paralytic phenotype caused by mechanical-stress, termed “bang sensitivity” (Celotto et al., 2011; Fergestad et al., 2006; Ganetzky and Wu, 1982). […] Briefly, flies were vortexed for 10 seconds in inverted glass vials containing cotton stoppers, and the time required for each individual animal to right itself was recorded. […]
Unless otherwise stated statistical significance tests were calculated using an unpaired two-tailed Student's t-test.

[1] = test system: mouse primary dopaminergic neuron culture; experiment: Survival of TH positive dopaminergic neurons in primary mesencephalic culture injured by MPP+; type: cell-based; settings: for TH neuron survival against MPP+, % of cell survival / dopaminergic (TH positive) neuron survival, percentage of control / decrease of TH positive neurons: MPP+ 4 μM for 48 h
Description: Parkinson's disease (PD) is the second most common neurodegenerative disorder in the United States. The predominant motor symptoms of PD including slow movement, resting tremor, rigidity, and gait disturbance, are caused by the loss of dopaminergic neurons in the substantia nigra (SN). Although the aetiology of PD remains unknown, both genetic and environmental factors appear to play a role (Paisan-Ruiz et al., 2004; Vila & Przedborski, 2004). The neurotoxicant 1-methyl-4-phenyl-1, 2, 3, 6-tetrahydropyridine (MPTP) is a specific dopaminergic neuronal toxin. MPTP is converted to 1-methyl-4-phenyl pyridinium (MPP+) by astroglia and then causes specific dopaminergic neuronal death in the SN, thus leading to the clinical symptoms of PD in humans, primates and mice (Uhl et al., 1985). For this reason, MPTP-induced dopaminergic neurotoxicity in mice is widely used as a model for PD research. It has been largely reported that MPP+ causes neurodegeneration of dopaminergic neurones in vitro and provides a useful model of Parkinson's disease in vitro. […] This study investigated the neuroprotective effect of Mitokinin test compound (kinetin) in function on time of pre-incubation and concentration on mouse primary mesencephalic cultures injured by exposure to 1-methyl-4-phenylpyridinium (MPP+), a Parkinson' disease model in vitro. BDNF at 10 ng/ml will be used as a positive control in this study.
Mouse dopaminergic neurons are cultured as described by Schinelli et al., 1988 and Viswanath et al., 2001. Briefly pregnant female mouse of 14 days gestation are killed by cervical dislocation (Mouse C57Bl/6; Janvier Labs) and the foetuses are removed from the uterus. The embryonic midbrains are removed and placed in ice-cold medium of Leibovitz (L15; PanBiotech; ref: PO4-27055, batch: 4290114) containing 2% of Penicillin-Streptomycin (PS; PanBiotech; ref: P06-07100; batch: 4810114) and 1% of bovine serum albumin (BSA; PanBiotech; Ref: P06-1391100, batch: K030913). Only the ventral portions of the mesencephalic flexure are used for the cell preparations as this is the region of the developing brain rich in dopaminergic neurons. The midbrains are dissociated by trypsinisation for 20 min at 37° C. (Trypsin EDTA IX; PanBiotech Ref: P10-023100; batch: 1681013). The reaction is stopped by the addition of Dulbecco's modified Eagle's medium (DMEM; PanBiotech Ref PO4-03600; batch: 9710913) containing DNAase I grade II (0.1 mg/ml; Panbiotech, ref: P60-37780100; batch: H130919) and 10% of foetal calf serum (FCS; Invitrogen; ref: 10270-098; batch: 41Q4120K). Cells are then mechanically dissociated by 3 passages through a 10 ml pipette. Cells are then centrifuged at 180×g for 10 min at 4° C. temperature on a layer of BSA (3.5%) in L15 medium. The supernatant is discarded and the cells of pellet is re-suspended in a defined culture medium consisting of Neurobasal (Invitrogen, ref: 21103; batch: 1556347) supplemented with B27 (2%; Invitrogen; ref: 17504; batch: 1446691), L-glutamine (2 mM; PanBiotech; ref: PO4-80100; batch: 6620314) and 2% of PS solution. Viable cells are counted in a Neubauer cytometer using the trypan blue exclusion test. The cells are seeded at a density of 70 000 cells/well in 96 well-plates (wells are pre-coated with poly-L-lysine (Greiner)) and are cultured at 37° C. in a humidified air (95%)/CO2 (5%) atmosphere. Half of the medium are changed every 2 days with fresh medium. In these conditions, after 5 days of culture, astrocytes are present in the culture and release growth factor allowing neurons differentiation. Five to six percents of the neuronal cell population are dopaminergic neurons.
Briefly, on day 5 of culture, the medium was removed and fresh medium was added, without or with kinetin (Sigma ref 48130) at 100 μM, 50 μM, 25 μM and with and without BDNF 10 ng/ml for 2 days, 6 days or 10 days. […]

SH-SYSY cells = experiment: Modulation of PINK1: Caspase-Glo caspase 3/7 cleavage after MG-132 in SH-SYSY cells; type: cell-based; settings: then 25 uM MG-132 for 16 hours, % of kinetin's caspase cleavage values; for Run1 Compound (avg as % kinetin): Run1, compound 96 hours; for Run2 Compound (avg as % kinetin): Run2, compound 96 hours; for Run3 Compound (avg as % kinetin): Run3, compound 96 hours
Protocol: We grew SH-SYSY cells in 1:1 mix of DMEM and F12 supplemented with 10% FBS and Pen/Strep (1×) antibiotics on 96 well plates (˜5,000 cells/well) at 37 degrees Celsius in 90 ul per well. We added 10 ul of 10× mix of the compounds identified below in a DMSO and medium mix to the cells. (min. 2 wells per compound per plate), allowed it to incubate for 96 hours at 37 degrees Celsius, then added 25 uM MG-132 for 16 hours (a proteasome inhibitor that triggers apoptosis; this toxicity is known to be opposed by PINK1). Following incubation with MG-132 we added 100 ul of Promega Caspase-Glo® reagent directly to each well to lyse cells and provide a luminescent Caspase 3/7 substrate peptide to quantify caspase cleavage activity. All of the values in Table 2 are presented as a % of kinetin's caspase cleavage values (kinentin was run as a positive control in parallel to the analogs of kinetin shown below).

Nc1ncnc2nc[nH]c12 [Adenine]
mean time necessary for recovery (to right itself) after 10 seconds vortexing (ND2 mutant flies): approximately 9 seconds

c1coc(CNc2ncnc3nc[nH]c23)c1 [Kinetin, kinetin]
mean time necessary for recovery (to right itself) after 10 seconds vortexing (ND2 mutant flies): 0.5 s | TH neuron survival against MPP+, % of cell survival ([1]; Kinetin 25 μM pre-incubated 10 days): 76% | dopaminergic (TH positive) neuron survival, percentage of control ([1]; Kinetin 100 μM pre-incubated 2 days): 70% | dopaminergic (TH positive) neuron survival, percentage of control ([1]; Kinetin 100 μM pre-incubated 6 days): 72% | toxicity on dopaminergic neurons on long incubation ([1]; Kinetin 100 μM pre-incubated 10 days): toxic | TH neuron survival against MPP+, % of cell survival ([1]; Kinetin 5004 pre-incubated 10 days): 84%

C[n+]1ccc(-c2ccccc2)cc1 [MPP^+, 1-methyl-4-phenylpyridinium]
decrease of TH positive neurons ([1]; 2 days pre-incubation series (FIG. 1)): ~50% | decrease of TH positive neurons ([1]; 6 days pre-incubation series (FIG. 2)): ~54% | decrease of TH positive neurons ([1]; 10 days pre-incubation series (FIG. 3)): ~47%

c1coc(CC2CNc3ncnc4ncn2c34)c1 (stereo not shown) [MTK- 48, 7-(furan-2-ylmethyl)-8,9-dihydro-7H-imidazo[4,5,1-de]pteridine]
Run1 Compound (avg as % kinetin) (SH-SYSY cells): 92% | Run2 Compound (avg as % kinetin) (SH-SYSY cells): 122% | Run3 Compound (avg as % kinetin) (SH-SYSY cells): 95%

c1coc(CNc2ncnc3[nH]ncc23)c1 [MTK- 51, N-(furan-2-ylmethyl)-1H-pyrazolo [3,4-d]pyrimidin-4-amine]
Run1 Compound (avg as % kinetin) (SH-SYSY cells): 80% | Run2 Compound (avg as % kinetin) (SH-SYSY cells): 92%

c1coc(CNc2ccnc3[nH]cnc23)c1 [MTK- 58, N-(furan-2-ylmethyl)-3H-imidazo[4,5-b]pyridin-7-amine]
Run1 Compound (avg as % kinetin) (SH-SYSY cells): 94% | Run2 Compound (avg as % kinetin) (SH-SYSY cells): 108%

c1coc(CNc2ccnc3[nH]ncc23)c1 [MTK- 59, N-(furan-2-ylmethyl)-1H-pyrazolo[3,4-b]pyridin-4-amine]
Run1 Compound (avg as % kinetin) (SH-SYSY cells): 72% | Run2 Compound (avg as % kinetin) (SH-SYSY cells): 108%

c1coc(CNc2nccc3[nH]ncc23)c1 [MTK- 62, N-(furan-2-ylmethyl)-1H-pyrazolo[4,3-c]pyridin-4-amine]
Run1 Compound (avg as % kinetin) (SH-SYSY cells): 88% | Run2 Compound (avg as % kinetin) (SH-SYSY cells): 132%

Cc1nc2c(NCc3ccco3)ncnc2[nH]1 [MTK- 64, N-(furan-2-ylmethyl)-8-methyl-9H-purin-6-amine]
Run1 Compound (avg as % kinetin) (SH-SYSY cells): 79% | Run2 Compound (avg as % kinetin) (SH-SYSY cells): 120% | Run3 Compound (avg as % kinetin) (SH-SYSY cells): 93%

Nc1nc(NCc2ccco2)c2nc[nH]c2n1 [MTK- 68, N-6-(furan-2-ylmethyl)-9H-purine-2,6-diamine]
Run1 Compound (avg as % kinetin) (SH-SYSY cells): 95%

B1: BDNF: brain derived neurotrophic factor, used at 10 ng/ml as positive control (protein, UniProt P23560 19-247, looked up)
Neurotrophic factor BDNF …: APMKEANIRGQGGLAYPGVRTHGTLESVNGPKAGSRGLTSLADTFEHVIEELLDEDQKVRPNEENNKDADLYTSRVMLSSQVPLEPPLLFLLEEYKNYLDAANMSMRVRRHSDPARRGELSVCDSISEWVTAADKKTAVDMSGGTVTVLEKVPVSKGQLKQYFYETKCNPMGYTKEGCRGIDKRHWNSQCRTTQSYVRALTMDSKKRIGWRFIRIDTSCVCTLTIKRGR
dopaminergic (TH positive) neuron survival, percentage of control ([1]; BDNF 10 ng/mL, 2 days pre-incubation series): 87% | dopaminergic (TH positive) neuron survival, percentage of control ([1]; BDNF 10 ng/mL, 6 days pre-incubation series): 84% | dopaminergic (TH positive) neuron survival, percentage of control ([1]; BDNF 10 ng/mL, 10 days pre-incubation series): 91%
